Measurements from US10526327B2, “Histone demethylase inhibitors” (CELGENE QUANTICEL RESEARCH, INC., priority 2013, dated 2020).

Assays:
Jarid1B = biological target: T1, Jarid1B (Homo sapiens, UniProt Q9UGL1); experiment: Jarid1B in vitro enzyme inhibition assay (TR-FRET); assay type: biochemical
T1 construct: purchased BPS Bioscience or custom made by MolecularThroughput 50121
T1 sequence (Q9UGL1 2-751): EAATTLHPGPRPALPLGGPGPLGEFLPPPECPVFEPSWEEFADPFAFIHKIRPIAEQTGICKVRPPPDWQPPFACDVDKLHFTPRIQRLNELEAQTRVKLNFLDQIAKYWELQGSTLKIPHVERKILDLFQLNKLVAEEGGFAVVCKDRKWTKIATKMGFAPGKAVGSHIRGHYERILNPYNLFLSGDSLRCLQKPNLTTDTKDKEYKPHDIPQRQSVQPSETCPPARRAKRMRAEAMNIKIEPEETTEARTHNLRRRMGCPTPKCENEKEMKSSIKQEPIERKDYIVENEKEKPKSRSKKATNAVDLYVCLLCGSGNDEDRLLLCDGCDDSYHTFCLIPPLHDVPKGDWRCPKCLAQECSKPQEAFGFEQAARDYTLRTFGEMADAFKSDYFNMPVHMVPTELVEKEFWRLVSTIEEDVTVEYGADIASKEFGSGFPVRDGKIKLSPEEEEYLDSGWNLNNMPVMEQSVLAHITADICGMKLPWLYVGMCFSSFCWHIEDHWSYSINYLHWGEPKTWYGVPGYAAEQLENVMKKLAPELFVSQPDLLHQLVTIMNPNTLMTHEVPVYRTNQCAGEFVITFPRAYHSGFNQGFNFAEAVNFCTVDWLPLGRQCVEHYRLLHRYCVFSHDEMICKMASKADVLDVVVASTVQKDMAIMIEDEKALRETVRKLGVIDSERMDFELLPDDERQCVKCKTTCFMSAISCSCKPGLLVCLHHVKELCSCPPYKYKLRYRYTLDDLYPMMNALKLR
Summary of the method: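 TR-FRET read-out of demethylated product (Eu-anti-H3K4me1-2, streptavidin-APC) after EDTA quench; ratio 665/615 fitted to IC50. Reaction: 30 min at RT, 0.8 nM baculovirus Jarid1B residues 2-751, 2 μM α-ketoglutarate, 300 nM H3K4me3-biotin peptide, pH 7.3 buffer with Fe(II) and ascorbate.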

JMJD2C = biological target: T2, JMJD2C (Homo sapiens, UniProt Q9H3R0); experiment: JMJD2C in vitro enzyme inhibition assay (TR-FRET); assay type: biochemical
T2 construct: purchased BPS Bioscience 50105
T2 sequence (Q9H3R0 2-372): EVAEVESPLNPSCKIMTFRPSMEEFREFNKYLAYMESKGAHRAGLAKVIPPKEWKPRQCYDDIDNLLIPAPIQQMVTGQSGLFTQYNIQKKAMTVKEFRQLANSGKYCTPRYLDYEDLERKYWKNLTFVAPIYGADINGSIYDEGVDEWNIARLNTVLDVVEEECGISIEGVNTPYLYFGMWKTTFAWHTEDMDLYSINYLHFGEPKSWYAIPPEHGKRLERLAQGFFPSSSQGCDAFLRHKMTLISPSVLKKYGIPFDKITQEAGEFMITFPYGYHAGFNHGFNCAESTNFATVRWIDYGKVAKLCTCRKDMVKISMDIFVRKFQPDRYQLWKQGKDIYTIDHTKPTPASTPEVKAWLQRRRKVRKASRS
Summary of the method: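 IC50 came from 665/615 TR-FRET ratios (Eu-anti-H3K9me2 antibody, streptavidin-APC, EDTA quench) over 11-point inhibitor series. Reactions ran 30 min at room temperature: 0.3 nM JMJD2C (AA 2-372, baculovirus), 300 nM biotinylated H3K9me3 peptide, 2 μM alpha-ketoglutarate, 2 μM Fe(II), ascorbate, pH 7.3.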

SMILES	IC50 (Jarid1B)	IC50 (JMJD2C)
Oc1nc(Oc2ccnc(N3CCOCC3)c2)nc2cnccc12 [Example 97, 2-(2-morpholin-4-ylpyridin-4-yl)oxypyrido[3,4-d]pyrimidin-4-ol]	≤ 100 nM	100 to 1000 nM
COc1ccc(Oc2nc(O)c3ccncc3n2)cc1OC [Example 38, 2-(3,4-dimethoxyphenoxy)pyrido[3,4-d]pyrimidin-4-ol]	≤ 100 nM	100 to 1000 nM
CCn1cc(Oc2nc(O)c3ccncc3n2)cn1 [Example 62, 2-[(1-ethyl-1H-pyrazol-4-yl)oxy]pyrido[3,4-d]pyrimidin-4-ol]	≤ 100 nM	≤ 100 nM
CCn1ncc2ccc(Oc3nc(O)c4ccnc(-c5cn(C)cn5)c4n3)cc21 [Example 84, 2-(1-ethylindazol-6-yl)oxy-8-(1-methylimidazol-4-yl)pyrido[3,4-d]pyrimidin-4-ol]	≤ 100 nM	100 to 1000 nM
